Data: US20080312080A1 (priority 2006, published 2008)

The substances below were run on Aspergillus parasiticus NRRL 2999.
Format: cell-based

Substance | aflatoxin production inhibition activity (in words)
(S)-3-aminooctanoyl-(S)-3-aminooctanoyl-L-alanine [Example 6] | extremely excellent aflatoxin production inhibition activity
(S)-3-aminooctanoyl-(S)-3-aminooctanoyl-L-proline [Example 8] | extremely excellent aflatoxin production inhibition activity
(S)-3-aminooctanoyl-(S)-3-aminooctanoyl-glycine [Example 4] | extremely excellent aflatoxin production inhibition activity
